Measured values published in US7902361B2, “Pyrimidin-4-yl-3, 4-thione compounds and their use in therapy” (Cyclacel Limited, priority 2003, dated 2011).
pIC50, pKi: −log10 of the molar value.

How the values were obtained:
Assay type in all cases: biochemical
[1] = target: CDK9/cyclin T1 (Homo sapiens, UniProt P50750); test: Kinase assay CDK9/cyclin T1; conditions: Ki calculated (Cheng-Prusoff) from experimentally determined IC50 and Km,ATP; read-out: Kinase Inhibition Ki CDK9 - cyclin T1
Procedure: (§1) The compounds from the examples above were investigated for their ability to inhibit the enzymatic activity of various protein kinases. This was achieved by measurement of incorporation of radioactive phosphate from ATP into appropriate polypeptide substrates. Recombinant protein kinases and kinase complexes were produced or obtained commercially. Assays were performed using 96-well plates and appropriate assay buffers (typically 25 mM β-glycerophosphate, 20 mM MOPS, 5 mM EGTA, 1 mM DTT, 1 mM […], pH 7.4), into which were added 2-4 μg of active enzyme with appropriate substrates. The reactions were initiated by addition of Mg/ATP mix (15 mM MgCl2+100 μM ATP with 30-50 kBq per well of [γ-^32P]-ATP) and mixtures incubated as required at 30° C. Reactions were stopped on ice, followed by filtration through p81 filterplates or GF/C filterplates (Whatman Polyfiltronics, Kent, UK). After washing 3 times with 75 mM aq orthophosphoric acid, plates were dried, scintillant added and incorporated radioactivity measured in a scintillation counter (TopCount, Packard Instruments, Pangbourne, Berks, UK). Compounds for kinase assay were made up as 10 mM stocks in DMSO and diluted into 10% DMSO in assay buffer.

[2] = target: T1, GSK3β (Homo sapiens, UniProt P49841); test: GSK3β in vitro kinase assay; conditions: recombinant human GSK3β, 100 μM ATP
T1 construct: purchased New England Biolabs
Procedure: Both isoforms of GSK3 (α and β) are involved in the regulation of glycogen synthase activity—key enzyme in the glycogen metabolism.
A 10-point titration was set up to determine the IC50 values of selected example compounds against GSK3β. Assays were performed using 96-well microtiter plates with a final volume of 25 μL per well. Each assay contained 1.5 units of GSK3β(New England Biolabs), 200 μM CREB phosphopeptide ([…]pSYR, Alta Biosciences), 20 mM Tris HCl pH7.5, 5 mM DTT, 15 mM MgCl2 supplemented with 100 μM ATP and 0.5 μCi of [γ-^32P] ATP plus or minus inhibitor in 2% DMSO. Assays were carried out for 30 minutes at 30° C. before stopping the reaction by the addition of an equal volume of 75 mM aqueous phosphoric acid. Samples were then spotted onto a p81 filterplate (Whatman) and a vacuum was applied. Wells were washed 3 times with 200 μL of dilute aqueous phosphoric acid before the addition of 50 μL Microscint 40 per well. Incorporation of radioactivity was determined on a Topcount microplate scintillation counter (Packard).

[3] = target: CDK4/cyclin D1 (Homo sapiens, UniProt P11802); test: Kinase assay CDK4/cyclin D1; conditions: Ki calculated (Cheng-Prusoff) from experimentally determined IC50 and Km,ATP; read-out: Kinase Inhibition Ki CDK4 - cyclin D1
Procedure: as §1

[4] = target: CDK2/cyclin E (Homo sapiens, UniProt P24941); test: Kinase assay CDK2/cyclin E; conditions: Ki calculated (Cheng-Prusoff) from experimentally determined IC50 and Km,ATP; read-out: Kinase Inhibition Ki CDK2 - cyclin E
Procedure: as §1, with “The reactions were initiated by addition of Mg/ATP mix (15 mM MgCl2+100 μM ATP with 30-50 kBq per well of [γ-^32P]-ATP) and mixtures incubated as required at 30° C.” left out

[5] = target: CDK1/cyclin B (Homo sapiens, UniProt P06493); test: Kinase assay CDK1/cyclin B (radioactive phosphate incorporation); conditions: Ki calculated (Cheng-Prusoff) from experimentally determined IC50 and Km,ATP; read-out: Kinase Inhibition Ki CDK1 - cyclin B
Procedure: as §1, with “The reactions were initiated by addition of Mg/ATP mix (15 mM MgCl2+100 μM ATP with 30-50 kBq per well of [γ-^32P]-ATP) and mixtures incubated as required at 30° C.” left out

[6] = target: CDK7/cyclin H (Homo sapiens, UniProt P50613); test: Kinase assay CDK7/cyclin H; conditions: Ki calculated (Cheng-Prusoff) from experimentally determined IC50 and Km,ATP; read-out: Kinase Inhibition Ki CDK7 - cyclin H
Procedure: as §1

[7] = target: CDK2/cyclin A (Homo sapiens, UniProt P24941); test: Kinase assay CDK2/cyclin A; conditions: Ki calculated (Cheng-Prusoff) from experimentally determined IC50 and Km,ATP; read-out: Kinase Inhibition Ki CDK2 - cyclin A
Procedure: as §1, with “The reactions were initiated by addition of Mg/ATP mix (15 mM MgCl2+100 μM ATP with 30-50 kBq per well of [γ-^32P]-ATP) and mixtures incubated as required at 30° C.” left out

T1 sequence (P49841 whole entry): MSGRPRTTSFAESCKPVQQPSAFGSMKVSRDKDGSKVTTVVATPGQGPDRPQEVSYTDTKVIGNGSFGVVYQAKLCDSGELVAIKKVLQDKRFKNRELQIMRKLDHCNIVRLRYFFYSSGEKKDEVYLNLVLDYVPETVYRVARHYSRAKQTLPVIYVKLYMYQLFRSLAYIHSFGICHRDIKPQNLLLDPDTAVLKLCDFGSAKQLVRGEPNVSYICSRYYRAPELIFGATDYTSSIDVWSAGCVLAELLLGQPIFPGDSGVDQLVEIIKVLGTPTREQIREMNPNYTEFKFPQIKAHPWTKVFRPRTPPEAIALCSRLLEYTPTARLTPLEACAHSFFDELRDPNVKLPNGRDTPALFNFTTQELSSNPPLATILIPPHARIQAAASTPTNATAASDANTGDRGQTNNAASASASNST
Sequence of CDK4/cyclin D1 (P11802 whole entry, species assumed): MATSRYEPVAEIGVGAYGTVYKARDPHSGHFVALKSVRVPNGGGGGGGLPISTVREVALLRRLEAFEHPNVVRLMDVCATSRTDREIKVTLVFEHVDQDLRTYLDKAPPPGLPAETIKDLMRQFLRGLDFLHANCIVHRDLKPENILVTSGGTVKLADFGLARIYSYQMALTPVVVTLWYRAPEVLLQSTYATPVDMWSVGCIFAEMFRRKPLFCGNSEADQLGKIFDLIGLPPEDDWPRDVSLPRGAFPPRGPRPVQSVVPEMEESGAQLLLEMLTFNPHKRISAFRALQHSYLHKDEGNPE
Sequence of CDK4/cyclin D1 (P24385 whole entry partner, species assumed): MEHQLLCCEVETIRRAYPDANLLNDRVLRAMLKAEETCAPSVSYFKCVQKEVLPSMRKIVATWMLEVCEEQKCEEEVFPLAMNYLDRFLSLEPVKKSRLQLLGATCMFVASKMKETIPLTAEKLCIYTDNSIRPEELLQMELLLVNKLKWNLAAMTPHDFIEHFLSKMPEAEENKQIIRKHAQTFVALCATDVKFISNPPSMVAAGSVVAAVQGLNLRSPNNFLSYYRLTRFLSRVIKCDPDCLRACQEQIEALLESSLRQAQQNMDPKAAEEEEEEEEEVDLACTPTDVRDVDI
Sequence of CDK1/cyclin B (P06493 whole entry, species assumed): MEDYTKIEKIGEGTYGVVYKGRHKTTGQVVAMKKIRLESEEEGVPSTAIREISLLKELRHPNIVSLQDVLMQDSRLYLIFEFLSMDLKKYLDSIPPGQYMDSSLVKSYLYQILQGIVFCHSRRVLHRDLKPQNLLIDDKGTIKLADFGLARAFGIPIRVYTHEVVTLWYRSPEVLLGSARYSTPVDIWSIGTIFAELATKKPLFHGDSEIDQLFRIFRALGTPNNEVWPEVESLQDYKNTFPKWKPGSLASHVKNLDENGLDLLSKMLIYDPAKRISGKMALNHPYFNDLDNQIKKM
Sequence of CDK1/cyclin B (P14635 whole entry partner, species assumed): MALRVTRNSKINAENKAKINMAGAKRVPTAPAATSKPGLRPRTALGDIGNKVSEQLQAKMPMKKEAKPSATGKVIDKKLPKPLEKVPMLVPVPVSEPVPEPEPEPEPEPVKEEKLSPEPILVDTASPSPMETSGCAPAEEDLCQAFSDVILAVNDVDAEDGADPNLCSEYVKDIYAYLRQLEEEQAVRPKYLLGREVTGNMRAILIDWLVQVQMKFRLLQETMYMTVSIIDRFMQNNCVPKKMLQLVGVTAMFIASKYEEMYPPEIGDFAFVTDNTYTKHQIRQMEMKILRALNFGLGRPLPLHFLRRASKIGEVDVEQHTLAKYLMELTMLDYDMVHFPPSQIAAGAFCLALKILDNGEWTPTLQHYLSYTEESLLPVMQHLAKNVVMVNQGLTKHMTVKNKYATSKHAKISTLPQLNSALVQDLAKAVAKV
Sequence of CDK9/cyclin T1 (P50750 whole entry, species assumed): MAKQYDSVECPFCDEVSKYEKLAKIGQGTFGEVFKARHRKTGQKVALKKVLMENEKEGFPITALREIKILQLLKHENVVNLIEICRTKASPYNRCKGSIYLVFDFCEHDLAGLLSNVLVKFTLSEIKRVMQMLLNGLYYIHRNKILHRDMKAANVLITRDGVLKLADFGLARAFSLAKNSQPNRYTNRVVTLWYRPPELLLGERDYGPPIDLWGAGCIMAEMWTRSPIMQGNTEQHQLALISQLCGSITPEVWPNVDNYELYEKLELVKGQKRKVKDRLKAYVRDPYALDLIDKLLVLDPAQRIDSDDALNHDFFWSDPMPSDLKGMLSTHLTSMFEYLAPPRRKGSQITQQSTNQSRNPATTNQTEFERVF
Sequence of CDK9/cyclin T1 (O60563 whole entry partner, species assumed): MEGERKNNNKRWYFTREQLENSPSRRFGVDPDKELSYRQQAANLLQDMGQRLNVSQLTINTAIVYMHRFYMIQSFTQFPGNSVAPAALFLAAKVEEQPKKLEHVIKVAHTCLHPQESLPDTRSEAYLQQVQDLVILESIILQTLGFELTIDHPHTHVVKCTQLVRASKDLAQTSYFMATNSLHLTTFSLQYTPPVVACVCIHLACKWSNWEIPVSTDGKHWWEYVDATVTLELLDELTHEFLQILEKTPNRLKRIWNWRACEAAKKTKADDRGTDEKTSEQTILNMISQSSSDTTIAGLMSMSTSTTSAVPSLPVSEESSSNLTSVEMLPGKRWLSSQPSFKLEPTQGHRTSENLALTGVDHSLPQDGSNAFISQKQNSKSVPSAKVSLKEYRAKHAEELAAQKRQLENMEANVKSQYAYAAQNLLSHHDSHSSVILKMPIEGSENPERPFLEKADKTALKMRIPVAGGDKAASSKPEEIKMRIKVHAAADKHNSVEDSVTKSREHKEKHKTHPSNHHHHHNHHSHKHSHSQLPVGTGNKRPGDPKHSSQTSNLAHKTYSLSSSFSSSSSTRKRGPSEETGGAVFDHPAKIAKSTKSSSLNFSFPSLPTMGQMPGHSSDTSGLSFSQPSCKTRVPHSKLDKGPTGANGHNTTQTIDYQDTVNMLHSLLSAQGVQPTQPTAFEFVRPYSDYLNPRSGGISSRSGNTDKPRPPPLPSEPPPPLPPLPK
Sequence of CDK7/cyclin H (P50613 whole entry, species assumed): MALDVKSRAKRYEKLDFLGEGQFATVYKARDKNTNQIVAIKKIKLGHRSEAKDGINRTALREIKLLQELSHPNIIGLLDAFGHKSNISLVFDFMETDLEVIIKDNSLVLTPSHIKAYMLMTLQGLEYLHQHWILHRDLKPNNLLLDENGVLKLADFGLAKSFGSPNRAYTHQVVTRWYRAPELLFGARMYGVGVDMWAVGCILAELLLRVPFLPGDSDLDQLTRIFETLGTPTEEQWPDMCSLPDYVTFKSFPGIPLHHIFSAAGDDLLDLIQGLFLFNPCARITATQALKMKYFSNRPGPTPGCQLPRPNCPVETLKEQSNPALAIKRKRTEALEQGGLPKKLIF
Sequence of CDK7/cyclin H (P51946 whole entry partner, species assumed): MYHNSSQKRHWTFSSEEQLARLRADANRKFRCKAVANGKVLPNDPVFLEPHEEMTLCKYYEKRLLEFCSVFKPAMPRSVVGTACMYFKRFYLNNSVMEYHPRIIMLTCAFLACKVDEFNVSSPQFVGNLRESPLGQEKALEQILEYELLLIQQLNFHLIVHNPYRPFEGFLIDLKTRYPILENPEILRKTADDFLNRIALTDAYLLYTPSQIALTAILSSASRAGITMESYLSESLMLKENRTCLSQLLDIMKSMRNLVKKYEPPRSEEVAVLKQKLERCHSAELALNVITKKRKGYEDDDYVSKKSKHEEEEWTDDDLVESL

Compound | pKi [1] | pIC50 [2] | pKi [3] | pKi [4] | pKi [5] | pKi [6] | pKi [7]
CCn1c(C)c(-c2ccnc(Nc3ccc(Cl)c(C(F)(F)F)c3)n2)sc1=O [Compound 48, 5-[2-(4-Chloro-3-trifluoromethyl-phenylamino)-pyrimidin-4-yl]-3-ethyl-4-methyl-3H-thiazol-2-one] | 6.64 | 7.21 | – | – | – | – | –
COc1ccc(Nc2nccc(-c3sc(=O)n(CCC(C)C)c3C)n2)cn1 [Compound 35, 5-[2-(6-Methoxy-pyridin-3-ylamino)-pyrimidin-4-yl]-4-methyl-3-(3-methyl-butyl)-3H-thiazol-2-one] | 6.31 | – | 5.70 | 6.18 | 5.59 | 6.70 | 6.72
Cc1c(-c2ccnc(Nc3cccc([N+](=O)[O-])c3)n2)sc(=O)n1CCC(C)C [Compound 30, 4-Methyl-3-(3-methyl-butyl)-5-[2-(3-nitro-phenylamino)-pyrimidin-4-yl]-3H-thiazol-2-one] | 6.72 | – | 4.68 | 6.54 | 6.17 | 7.51 | 6.25
CCn1c(C)c(-c2ccnc(Nc3ccc(Cl)c(C)c3)n2)sc1=O [Compound 51, 5-[2-(4-Chloro-3-methyl-phenylamino)-pyrimidin-4-yl]-3-ethyl-4-methyl-3H-thiazol-2-one] | 6.72 | 6.27 | – | 6.57 | 5.68 | 6.01 | –
CCn1c(C)c(-c2ccnc(Nc3cccc(S(=O)(=O)O)c3)n2)sc1=O [Compound 54, 3-[4-(3-Ethyl-4-methyl-2-oxo-2,3-dihydro-thiazol-5-yl)-pyrimidin-2-ylamino]-benzenesulfonic acid] | – | 6.80 | – | – | – | – | –

The next lines start with the values.

pKi [1] | pIC50 [2] | pKi [3] | pKi [4] | pKi [5] | pKi [6] | pKi [7] | Compound
7.85 | – | 6.82 | 7.01 | 7.19 | 6.22 | 8.07 | Cc1ccc(Nc2nccc(-c3sc(=O)n(C)c3C)n2)cc1N [Compound 39, 5-[2-(3-Amino-4-methyl-phenylamino)-pyrimidin-4-yl]-3,4-dimethyl-3H-thiazol-2-one]
7.03 | – | 6.57 | 6.28 | 5.82 | 6.77 | 6.64 | Cc1c(-c2ccnc(Nc3ccc(N4CCN(C)CC4)cc3)n2)sc(=O)n1C [Compound 13, 3,4-Dimethyl-5-{2-[4-(4-methyl-piperazin-1-yl)-phenylamino]-pyrimidin-4-yl}-3H-thiazol-2-one]
8.92 | – | 6.77 | 7.55 | 7.66 | 7.55 | 7.23 | Cc1c(-c2ccnc(Nc3ccc(Cl)c(CO)c3)n2)sc(=O)n1C [Compound 18, 5-[2-(4-Chloro-3-hydroxymethyl-phenylamino)-pyrimidin-4-yl]-3,4-dimethyl-3H-thiazol-2-one]
6.16 | – | 6.55 | 6.54 | 5.15 | 6.66 | 6.82 | CCn1c(C)c(-c2ccnc(Nc3ccc(N(C)C)cc3)n2)sc1=O [Compound 26, 5-[2-(4-Dimethylamino-phenylamino)-pyrimidin-4-yl]-3-ethyl-4-methyl-3H-thiazol-2-one]
7.39 | – | 6.28 | 6.12 | 6.12 | 6.07 | 6.70 | Cc1c(-c2ccnc(Nc3ccc(N(C)C)cc3)n2)sc(=O)n1C [Compound 8, 5-[2-(4-Dimethylamino-phenylamino)-pyrimidin-4-yl]-3,4-dimethyl-3H-thiazol-2-one]
– | 7.36 | – | 6.74 | – | – | 6.23 | CCn1c(C)c(-c2ccnc(Nc3ccc(S(=O)(=O)O)cc3)n2)sc1=O [Compound 53, 4-[4-(3-Ethyl-4-methyl-2-oxo-2,3-dihydro-thiazol-5-yl)-pyrimidin-2-ylamino]-benzenesulfonic acid]
